Experimental data taken from US20230251260A1, “METHODS OF DETERMINING CANCER THERAPY” (YISSUM RESEARCH DEVELOPMENT COMPANY OF THE HEBREW …, priority 2020, published 2023).

Experiments:
BR45 PDX = BR45 PDX in NSG mice treated by brachytherapy, tumor growth; assay type: in vivo, mouse; conditions: pretreatment prior to brachytherapy RT (12 Gy and 10 Gy)
Excerpt: Mouse models: Syngeneic mouse model: 2.0×10^5 4T1 cells were inoculated subcutaneously on 6-7 weeks old female Balb/c mice. Allogeneic model: BR45 tumors were induced on NSG mice either by injecting 4.0×10^6 cells […] or subcutaneously transplanting xenografts. After reached the desired tumor volume (80-100 mm3), mice were randomly grouped to around 8-10 per cage and treatment were initialized. Tumor sizes were regularly measured with an electronic calliper every two days and their volumes were obtained using the formula V=(W (2)×L)/2. Mice were kept under conventional pathogen-free conditions. All in-vivo experiments were performed with approval of the Hebrew University of Jerusalem IACUC.
Tumor inoculation: 4T1 mouse breast carcinoma mimics stage IV triple negative breast cancer in human. It is highly metastatic to lungs, lymph nodes, liver and bones after implantation in the mammary fat pad of immune-competent Balb/c mice. Primary tumors were harvested after euthanizing female mice using carbon dioxide (CO2) inhalation. Time elapsed from tumor inoculation varied from 2 weeks to 1 month. […]
Drugs were given usually by IP or gavage depending on the drug. […] During this period the tumor volumes were measured regularly to observe the action of the drug. […]

4T1 cells = assay: Survival assay (methylene blue) of irradiated 4T1 cells; assay type: cell-based, mouse; conditions: drugs with RT, beginning 2 days prior to RT until 6 days post-RT
Procedure: Survival Analysis: Cells were seeded at 70% confluency and treated as needed for different timepoints. Cells were washed with PBS and fixed with 4% PFA for 10 min. at R.T. The fixed cells were stained with Methylene Blue (MB) for 1 hour at R.T., washed and air dried overnight. The color was extracted with 0.1M HCl for 1 hour at R.T. Absorbance was read at 630 nm.

| Structure (SMILES) | tumor growth, response to RT (BR45 PDX) | cell survival / sensitization of 4T1 cells to RT (4T1 cells) |
| --- | --- | --- |
| C#Cc1cccc(Nc2ncnc3cc(OCCOC)c(OCCOC)cc23)c1 [erlotinib, Erlotinib] | did not improve the results of the treatment |  |
| C[C@@H](Oc1cc(-c2cnn(C3CCNCC3)c2)cnc1N)c1c(Cl)ccc(F)c1Cl [Crizotinib] |  | significantly less effective in sensitizing the cells to RT |
